System: Stress protein genes
Experiment: DNA chip mRNA expression in yeast, stress protein genes (Table 6)
Type: cell-based, Saccharomyces cerevisiae S288C
Method in brief: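 Cells were grown at 25° C. in YPD, treated at logarithmic phase for 2 h with a chemical at a concentration inhibiting growth but not causing death, and compared with untreated cultures. Labeled cDNA was hybridized to a DNA chip carrying all yeast genes, and the expression ratio was taken from scanner fluorescence.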

Measured: The level of expressed mRNA in the presence of chemical substance/The level of expressed mRNA in the absence of chemical substance

C=CC=O [(14), acrolein]
0.5: yeast gene YIL011W | yeast gene YJL158C | yeast gene YJR045C | yeast gene YKL163W
0.8: yeast gene YDL022W | yeast gene YDR293C | yeast gene YFL016C | yeast gene YJL128C | yeast gene YKL210W | yeast gene YLL026W | yeast gene YLR259C | yeast gene YNL064C | yeast gene YNR076W | yeast gene YOR027W
5.8: yeast gene YBR072W
2.3: yeast gene YIR037W | yeast gene YLR109W | yeast gene YMR173W
2.0: yeast gene YDR513W
1.4: yeast gene YEL039C | yeast gene YER057C | yeast gene YHL046C | yeast gene YKL161C | yeast gene YLL039C
1.7: yeast gene YCR060W | yeast gene YDL025C
3.3: yeast gene YFR052W
1.5: yeast gene YDR098C | yeast gene YDR258C | yeast gene YHR104W | yeast gene YPR026W
10.6: yeast gene YLL060C
0.4: yeast gene YAL005C | yeast gene YLL024C | yeast gene YOR010C
7.3: yeast gene YFL014W
5.2: yeast gene YER042W
1.6: yeast gene YAL015C | yeast gene YCR021C
1.1: yeast gene YBL075C | yeast gene YBR169C | yeast gene YHR030C | yeast gene YNL241C | yeast gene YPL140C | yeast gene YPL194W
0.3: yeast gene YDR077W | yeast gene YKL164C
2.4: yeast gene YCR083W
0.6: yeast gene YJL159W | yeast gene YMR186W
1.0: yeast gene YBL093C | yeast gene YBR054W | yeast gene YDR033W | yeast gene YDR155C | yeast gene YFL020C | yeast gene YGL181W | yeast gene YJR090C | yeast gene YLR006C
1.3: yeast gene YDR519W | yeast gene YGR088W | yeast gene YHL028W | yeast gene YKR053C | yeast gene YML070W | yeast gene YMR021C | yeast gene YNL160W | yeast gene YOR208W | yeast gene YPL059W | yeast gene YPR005C
0.7: yeast gene YBR067C | yeast gene YBR126C | yeast gene YEL030W | yeast gene YER125W | yeast gene YIL033C | yeast gene YOR009W | yeast gene YPL240C
2.5: yeast gene YCL035C | yeast gene YIR038C | yeast gene YPL223C
0.9: yeast gene YBR044C | yeast gene YER103W | yeast gene YJL165C | yeast gene YOL064C | yeast gene YOL161C | yeast gene YOR008C | yeast gene YPL106C
1.2: yeast gene YDR436W | yeast gene YGL073W | yeast gene YGL115W | yeast gene YML007W
1.9: yeast gene YHR057C
